# Assay results: patent US7714014B2, “Targeting GLI proteins in human cancer by small molecules” (The Regents of the University of California, priority 2005, dated 2010)
# What was measured:
# [1] = system: NSCLC cell lines A549, H358, and H322; experiment: Dose titration, cell killing; format: cell-based, human; settings: 7.5-30 μM tested, 3 days
# Experimental: (§1) Typically, the small molecule compounds of the present invention were dissolved in DMSO at a concentration of 30 mM. The small molecule compounds were then tested under cell culture conditions at different concentrations ranging from 0, 10, 30, 50, to 100 uM. To determine cell survival after treatment, the cells were incubated with the small molecule compounds in 6-well plates for about 3 days. After removal of the cell culture medium, 1-ml of 0.5% crystal violet solution (prepared in 20% ethanol and 20% methanol) was added to stain the cells for 5 min. Then the crystal violet solution was rinsed clean with tap water. Cell survival was estimated based on the density of crystal stained plates.
# Dose titration experiments of small molecule compound FN1-8 was performed using the NSCLC cell lines A549, H358, and H322. A 549, H358, and H322 cells were plated in 6-well plates and incubated with DM SO (control) or 7.5 μM, 10 μM, 15 μM, 20 μM, and 30 μM of FN1-8, respectively, for 3 days. A dramatic and dose-dependent cell killing in these cell lines was observed when FN1-8 was added at 15 μM or more. FN1-8 induced cell killing in A549 and […] at slightly lower concentrations than in H322 cells (data not shown). After 3 days, approximately 28% of the A549 cells and 58% of H358 underwent apoptosis when incubated with 20 μM FN1-8 (Table 3).
# [2] = system: melanoma cells Malme-3M, A375, G361, SK-Mel-2, SK-Mel-5, and SK-Mel-28; experiment: MTS cell proliferation assay; format: cell-based, human; settings: 5 μM or 10 μM
# Text: Another assay for determining the number of viable cells in proliferation or cytotoxicity assays is the MTS assay, a calorimetric method. MTS assay reagents are commercially available (Promega Corp., Madison, Wis.). The reagent contains a tetrazolium compound [3-(4,5-dimethylthiazol-2-yl)-5-(3-carboxymethoxyphenyl)-2-(4-sulfophenyl)-2H-tetrazolium, inner salt; MTS] and an electron coupling reagent (phenazine ethosulfate; PES). PES has enhanced chemical stability, which allows it to be combined with MTS to form a stable solution. The MTS tetrazolium compound (Owen.s reagent) is bioreduced by cells into a colored formazan product that is soluble in tissue culture medium. This conversion may be accomplished by NADPH or NADH produced by dehydrogenase enzymes in metabolically active cells. The quantity of formazan product as measured by the absorbance at 490 nm is directly proportional to the number of living cells in culture. Because the MTS formazan product is soluble in tissue culture medium, this assay requires fewer steps than procedures that use tetrazolium compounds such as MTT. The formazan product of MTT reduction is a crystalline precipitate that requires an additional step in the procedure to dissolve the crystals before recording absorbance readings at 570 nm. […]
# [3] = system: human glioma cell line U87; experiment: Cell survival assay (crystal violet); format: cell-based; settings: U87, 50 μM
# Experimental: as §1
# The cell-based cytotoxicity assay described herein was used to determine the effect of small molecule compounds FN1-5 and FN1-8 in the human glioma cell line U87. Viability of U87 cells was analyzed after treatment with 30 and 50 μM FN1-5 and 10, 30, and 50 μM FN1-8.
# [4] = system: GLI1, GLI2 and GLI/TAFII31 induced transcription in NSCLC A549 cells; experiment: 6xGLI BS-luciferase reporter assay (GLI / TAFII31 co-expression); format: cell-based, human; settings: for reduction of transcription activity (6xGLI BS-luciferase): 20 μM, 16-20 hours
# Experimental: One day before transfection, cells (1×10^5) were plated in 12-well plates with growth medium without antibiotics. When cells reached 80-90% of confluence they were co-transfected using 0.5 μg of each promoter construct in pGL3Basic vector and 0.025 μg pRL-TK Vector (Promega; Madison, Wis.) containing Renilla Luciferase as an internal control for the transformation efficiency. Lipofectamine 2000™ (Invitrogen Life Technologies) was used to mediate transfection for about 6 hours. Then the medium was replaced with fresh medium containing various small molecule compounds at a concentration of 30 μM, and the resulting cells were cultured for an additional 18-24 hours and subjected to luciferase assay. Briefly, cells were lysed in a lysis buffer and Firefly and Renilla Luciferase activities in cells of each well, were measured using Dual-Luciferase Assay System (Promega) and an illuminometer. The measured luciferase activities were normalized to pRL-TK Vector activity and were given relative to the basal activity of empty pGL3-Basic Vector, which was set to unity. The data shown represent mean values (±S.D.). All measurements were performed in triplicate and repeated in at least three independent experiments. The human Wnt-2 promoter-luciferase construct, the human SOCS3 promoter-Luciferase construct and the human Gremlin promoter-luciferase construct were cloned and characterized in the laboratory of Dr. Jablons at the University of California, San Francisco (San Francisco, Calif.; He et al., Biochem Biophy Res Comm, 2003; and unpublished data). The 6GLI-TKO-luciferase construct (containing 6 repeats of consensus GLI DNA binding sequence) was kindly provided by Dr. Matthias Hebrok's laboratory at the University of California, San Francisco (San Francisco, Calif.).
# Further, the specificity of the compounds of the present invention in inhibiting GLI activity and to determine whether these compounds block the interaction between GlLI and TAFII31 as described above, was examined. Specifically, in this analysis, an expression construct linking the 6 repeats of GLI-binding sites (6xGLI BS) to a luciferase reporter gene as a surrogate measurement of the GLI-dependent transcription was used to examine the 6xGLI BS-luciferase activity after treatment of NSCLC A549 cells with compound FN1-8. […] This finding again confirmed that both GLI1 and GLI2 specifically bound to the GLI-binding sites and were functionally active in transcription. […] After treatment of the A549 cells for 16-20 hours with 20 μM, FN1-8 both GLI alone and GLI/TAFII31 induced 6xGLI BS-luciferase transcription was reduced.
smiles,measurement,setting,value
"O=C(NCCc1ccc(O)cc1)C1C(c2ccccc2)=NN(c2ccccc2)C1c1ccccc1 (stereo not shown) [FN1-8, N-(2-(4-Hydroxyphenyl)ethyl)-1,3,5-triphenyl-4,5-dihydro-pyrazole-4-carboxyamide]",concentration at which dramatic and dose-dependent cell killing was observed,[1],≥ 15 µM
same,cell proliferation (MTS),[2],significantly inhibited cell proliferation
same,cell killing,[3],dramatic cell killing
same,GLI protein-TAF-induced transcriptional activation,[4]; A549 (FIG. 16),reduces GLI protein-TAF-induced transcriptional activation
same,reduction of transcription activity (6xGLI BS-luciferase),[4]; GLI1 cotransfected with TAFII31,about 70%
same,reduction of transcription activity (6xGLI BS-luciferase),[4]; GLI2 cotransfected with TAFII31,about 50%
same,reduction of transcription activity (6xGLI BS-luciferase),[4]; GLI alone,approximately 30%
